# From patent US7157495B2, “Hexahydrofuro[2,3-B]furan-3-YL-N-{3-[(1,3-benzodioxol-5-ylsulfonyl)(isobutyl)amino]-1-benzyl-2-hydroxypropyl}carbamate as retroviral protease inhibitor” (Tibotec Pharmaceuticals, Ltd., priority 1999, dated 2007)
# Where two headings read alike, the source gives them in different places.
# Experiments:
# HIV-1 strain LAI = test: Cellular anti-HIV assay in MT4 cells (MTT); assay type: cell-based; settings: for IC50: read-out: IC50
# Protocol: (§1) HIV- or mock-infected MT4 cells were incubated for five days in the presence of various concentrations of the inhibitor. At the end of the incubation period, all HIV-infected cells have been killed by the replicating virus in the control cultures in the absence of any inhibitor. Cell viability is measured by measuring the concentration of MTT, a yellow, water soluble tetrazolium dye that is converted to a purple, water insoluble formazan in the mitochondria of living cells only. Upon solubilization of the resulting formazan crystals with isopropanol, the absorbance of the solution is monitored at 540 nm. The values correlate directly to the number of living cells remaining in the culture at the completion of the five day incubation. The inhibitory activity of the compound was monitored on the virus-infected cells and was expressed as IC50 and IC90. These values represent the amount of the compound required to protect 50% and 90%, respectively, of the cells from the cytopathogenic effect of the virus. The toxicity of the compound was measured on the mock-infected cells and was expressed as CC50, which represents the concentration of compound required to inhibit the growth of the cells by 50%. The select index (SI) (ratio CC50/IC50) is an indication of the selectivity of the anti-HIV activity of the inhibitor.
# HIV = test: Anti-HIV activity in the presence of human serum proteins (HSA or AAG); assay type: cell-based
# Protocol: as §1, with “These values represent the amount of the compound required to protect 50% and 90%, respectively, of the cells from the cytopathogenic effect of the virus. The toxicity of the compound was measured on the mock-infected cells and was expressed as CC50, which represents the concentration of compound required to inhibit the growth of the cells by 50%. The select index (SI) (ratio CC50/IC50) is an indication of the selectivity of the anti-HIV activity of the inhibitor.” left out
# Human serum proteins like albumin (HSA) or alpha-1 acid glycoprotein (AAG) are known to bind many drugs, resulting in a possible decrease in the effectiveness of those compounds. In order to determine whether compound 13 would be adversely effected by this binding, the anti-HIV activity of the compound was measured in the presence of physiological concentrations of HSA or AAG, thus evaluating the effect of the binding of the inhibitor to those proteins.
# HIV strain r13033 = test: Antiviral spectrum, protease inhibitor resistant strain; assay type: cell-based; settings: strain r13033; L10I, M46L, I54V, L63P, A71V, V82A, L90M
# Protocol: as §1
# (§2) Because of the increasing emergence of drug resistant HIV strains, compound 13 and compound 14 were tested for its potency against HIV strains harbouring several mutations. These mutations are associated with resistance to protease inhibitors and result in viruses that show various degrees of phenotypic cross-resistance to five of the currently commercially available drugs (Saquinavir, Ritonavir, Nelfinavir, Indinavir and Amprenavir).
# HIV strain r13023 = test: as above; assay type: cell-based; settings: strain r13023; L10I, M36I/M, I54V/I, L63P, A71V, G73S, I84V, L90M
# Protocol: as §1, §2
# HIV strain r13025 = test: as above; assay type: cell-based; settings: strain r13025; L10I, M46I, L63P, A71V, I84V
# Protocol: as §1, §2
# HIV strain r13027 = test: as above; assay type: cell-based; settings: strain r13027; L10M/I, K20R, M36I, L63P, A71V, G73S, V77I, I84V, L90M
# Protocol: as §1, §2
# HIV strain r13022 = test: as above; assay type: cell-based; settings: strain r13022; K20R, M36I, M46I/M, 154V, L63P, A71V/I, V82T, L90M
# Protocol: as §1, §2
# HIV strain r13029 = test: as above; assay type: cell-based; settings: strain r13029; L10I/L, M36I, M46L, L63P, A71V, I84V, N88D, L90M
# Protocol: as §1, §2
# HIV strain r13035 = test: as above; assay type: cell-based; settings: strain r13035; D30N, L63P, V77I, N88D
# Protocol: as §1, §2
# HIV strain r13034 = test: as above; assay type: cell-based; settings: strain r13034; L10I, M36I, I54V, L63P, A71V, I84V
# Protocol: as §1, §2
# HIV strain r13031 = test: as above; assay type: cell-based; settings: strain r13031; G48V, I54V, V77I, V82A, L90M/L
# Protocol: as §1, §2
# HIV strain r13030 = test: as above; assay type: cell-based; settings: strain r13030; L10V/I, M36I, I54V, L63P, A71V, V82T, L90M
# Protocol: as §1, §2
# HIV strain r13037 = test: as above; assay type: cell-based; settings: strain r13037; L10I, M46I, I54V, L63P, A71T, V77I, V82A, L90M
# Protocol: as §1, §2
# HIV strain r13036 = test: as above; assay type: cell-based; settings: strain r13036; L10I, L63P, A71V, G73S, L90M
# Protocol: as §1, §2
# HIV strain r13021 = test: as above; assay type: cell-based; settings: strain r13021; L10I, K20R, L24I, M36I, I54V, L63P, A71V, V82T, I84V
# Protocol: as §1, §2
# HIV strain r13024 = test: as above; assay type: cell-based; settings: strain r13024; L10I, M36I, L63P, A71V, G73S, I84V, L90M
# Protocol: as §1, §2
# [1] = Oral absorption in rats, serum concentration; assay type: in vivo; settings: single oral dose 20 mg/kg in PEG400 by gavage, read-out: Compound concentration in serum
# Protocol: The oral absorption of compound 13 was then measured in rats to determine bioavailability. The compound was administered by gavage to rats, as a single dose of 20 mg/kg in PEG400. Animals were sacrificed at different time points after administration, whole blood was collected and serum prepared by standard methods. Concentration of the compound in serum was determined by titrating the anti-HIV activity present in the sample according to the procedure described above.
smiles,measurement,setting,value
"CC(C)CN(CC(O)C(Cc1ccccc1)NC(=O)OC1COC2OCCC12)S(=O)(=O)c1ccc2c(c1)OCO2 (stereo not shown) [Compound 13, hexahydrofuro[2,3-b]furan-3-yl-N-{3-[(1,3-benzodioxol-5-ylsufonyl)(isobutyl)amino]-1-benzyl-2-hydroxypropyl}carbamate]",SI (ratio CC50/IC50),HIV-1 strain LAI; CC50 on mock-infected MT4 cells / IC50 on HIV-1 LAI,"13,900"
same,IC90,"HIV-1 strain LAI; Human immunodeficiency virus 1, 120 h, HIV-1 strain LAI, MT4 cells, five days, median value of 12 determinations",2.4 nM
same,IC50,"HIV-1 strain LAI; Human immunodeficiency virus 1, MT4, 120 h, HIV-1 strain LAI, MT4 cells, five days",1.1 nM
same,IC50,HIV-1 strain LAI; strain LAI,1.4 nM
same,decrease of the potency,HIV; AAG at a concentration of 2 mg/ml,two to four
same,effect on the potency,HIV; HSA at a concentration of 45 mg/ml,no effect
same,IC50,HIV strain r13033,1.7 nM
same,IC50,HIV strain r13023,6.8 nM
same,IC50,HIV strain r13025,45.4 nM
same,IC50,HIV strain r13027,7.4 nM
same,IC50,HIV strain r13022,1.7 nM
same,IC50,HIV strain r13029,7 nM
same,IC50,HIV strain r13035,0.3 nM
same,IC50,HIV strain r13034,8 nM
same,IC50,HIV strain r13031,0.5 nM
same,IC50,HIV strain r13030,0.4 nM
same,IC50,HIV strain r13037,0.3 nM
same,IC50,HIV strain r13036,5.4 nM
same,IC50,HIV strain r13021,5.5 nM
same,IC50,HIV strain r13024,8.1 nM
same,concentration at 0 min,"[1]; rat, serum, po, 20 mg/kg, 0 minutes after administration",0 µM
same,concentration at 60 min,"[1]; rat, serum, po, 20 mg/kg, 60 minutes after administration",1 µM
same,concentration at 180 min,"[1]; rat, serum, po, 20 mg/kg, 180 minutes after administration",0.687 µM
same,concentration at 300 min,"[1]; rat, serum, po, 20 mg/kg, 300 minutes after administration",0.216 µM
same,concentration at 300 min,[1]; 60 minutes after administration,0.9858 µM
